Results on one compound are retold here after US20050096395A1, “Methods of treating attention deficit/hyperactivity disorder (adhd)” (priority 2002, published 2005).

The subject of one assay is norepinephrine reuptake. The conditions noted are these: cited from earlier work.
Assay [1] concerns patients with AD/HD and comorbid tic disorder. In words: randomized, double-blind, placebo-controlled trial in patients with AD/HD and comorbid tic disorder. Format: in vivo, human. To be noted: patients 7-15 years; 1.5-2 mg/kg/day; after 8 weeks of treatment. From the text: This study is a randomized, double-blind, placebo-controlled trial of parallel groups. […] Before entry into the study, each patient undergoes a detailed clinical evaluation by a psychiatrist and/or a psychologist. The diagnosis of AD/HD and comorbid tic disorder is made on the basis of this interview. Entry criteria includes age between 7 and 15 years, a DSM-IV diagnosis of AD/HD (any type), a DSM-IV tic disorder (any type), and a score of ≧1.5 standard deviation units for age and gender on the 10-item Conners hyperactivity index (Goyette et al., 1978, J. Abnorm. Child Psychol., 6: 221-236) rated by a teacher or parent. Exclusion criteria includes evidence of major depression, generalized anxiety disorder, separation anxiety disorder, or psychotic symptoms. Children with moderate or more severe tic symptoms (Yale Global Tic Severity Scale [[…] et al., 1989, J Am Acad Child Adolesc Psychiatry, 28: 566-573] total tic score of>22) or significant obsessive-compulsive symptoms (Children's Yale Brown Obsessive Compulsive Scale [[…] et al., 1997, J Am Acad Child Adolesc Psychiatry, 36: 844-852] total score>15) are also excluded. Before entry into the study the patients are tapered off their current medication. The participants in the study are randomly divided into two groups-milnacipran group and placebo control group. Each group consists of 5 patients. […] The patients in the placebo group are administered a placebo for 8 weeks. The patient's course is followed at visits with a primary clinician, who is blind to the patient's study group, every 2 weeks. The AD/HD rating scale, Clinical Global Impression global improvement score, and Yale Global Tic Severity Scale are used to follow the outcome measures. […] Each symptom was scored by the child's teacher from 0 to 3 (0=never [or rarely], 1=sometimes, 2=often, and 3=very often). […] A score of much improved or very much improved, reflecting meaningful improvement in AD/HD symptoms both at school and at home, is counted as a positive response. […]

A further assay addresses NMDA receptor. The conditions noted are these: cited from earlier work.
In assay [2] the test system is spontaneously hypertensive rats (SHR). In words: delayed gratification response paradigm in animal model of AD/HD. It is filed as in vivo, rat. To be noted: 5, 10, 25 or 50 mg/kg over twenty-one days. As to the method:
In this study, spontaneously hypertensive rats (SHR) are used as an animal model for AD/HD. The SHR animal model is described in Russell et al., 2000, Behavioral Brain Research, 117: 69-74; Russell, 2001, Metab. Brain Dis., 16: 143-149; and Sagvolden et al., 1992, Behav. Neural Biol., 58: 103-112. The study consists of two groups of rats: normal and SHR. Each group is further divided into two subgroups: placebo and milnacipran. […] The milnacipran is administered to the rats over a period of twenty-one days. The rats are from the normal and SHR groups are trained in the delayed gratification response paradigm as described in […] et al., 1996, Pharmacology and Biochemistry and Behavior, 54: 149-157. In this paradigm, rats learn to choose between five food pellets delivered after 30 seconds and one food pellet delivered after 5 seconds. Normal rats learn to choose the five food pellets delivered after 30 seconds at a higher frequency.

The test system of assay [3] is rats described in McGrath et al., 2000. The assay is described as follows: animal model of tic disorder (McGrath et al., 2000). It is filed as in vivo, rat. To be noted: 5, 10, 25 or 50 mg/kg over twenty-one days, before vs after administration. The protocol:
The rats are divided into two groups: placebo and milnacipran. […] The milnacipran is administered to the rats over a period of twenty-one days.

Broadly, the IC50 is the midpoint of a concentration-inhibition curve.

As for `CCN(CC)C(=O)[C@]1(c2ccccc2)C[C@@H]1CN` (racemic) [milnacipran, cis-(±)-2-(aminomethyl)-N,N-diethyl-1-phenyl-yclopropanecarboxamide], the half-inhibitory concentration (IC50) in the assay on norepinephrine reuptake was […]. Besides, in assay [1], the “AD/HD Rating Scale” value was “improvement”, the “Clinical Global Improvement Scale” value is “improvement” and the “Yale Global Tic Severity Scale” value is “improvement”. Besides, the 50% inhibitory concentration (IC50) on NMDA receptor is about 6.3 µM. For the same compound, the “time required by SHR rats to choose five food pellets delivered after 30 seconds at a higher frequency” value in assay [2] is listed as “reduced, approaching the amount of time required by the normal rats”. In addition, the “abnormal behavior such as climbing/leaping, gnawing, and other tic-like behaviors” value in assay [3] is “reduces the abnormal behavior”.
